Test: Inhibition of bovine liver beta-glucosidase

Row | IC50 | SMILES
1 | 120 µM | CCCC[C@H]1N[C@H](CO)[C@@H](O)[C@H](O)[C@H]1O [(2R,3S,4R,5R,6R)-2-butyl-6-(hydroxymethyl)piperidine-3,4,5-triol]
2 | 210 µM | OC[C@H]1NC[C@H](O)[C@@H](O)[C@@H]1O [(2R,3R,4R,5S)-2-(hydroxymethyl)piperidine-3,4,5-triol]
